Source: the NIST ThermoML archive (doi:10.1021/je900799e)

Experiment: molar heat capacity at constant pressure
Conditions: Liquid, metal-bellows calorimeter

F/C=C/C(F)(F)F [trans-1,3,3,3-tetrafluoropropene]
molar heat capacity at constant pressure [J/K/mol]
Conditions | 310 K | 320 K | 330 K | 340 K | 350 K | 360 K | 370 K
2000 kPa | 165.36 | 168.78 | 175.62 | 188.17 | 206.42 | – | –
3000 kPa | 160.8 | 164.22 | 169.92 | 179.05 | 192.73 | 214.4 | 272.56
4000 kPa | 157.38 | 160.8 | 166.5 | 169.92 | 182.47 | 195.01 | 224.66
5000 kPa | 155.1 | 158.52 | 161.94 | 164.22 | 174.48 | 183.61 | 204.13
